The nature of experiment [1]: Inhibition of CDK1/cyclinB. Details: species or system Homo sapiens.
In experiment [2] the target is Cyclin-dependent kinase 4 (Homo sapiens, UniProt P11802). Nature of the experiment: Inhibition of CDK4.
For experiment [3], the target named is Cyclin-dependent kinase 2 (Homo sapiens, UniProt P24941). Briefly: Inhibition of CDK2.
Experiment [4] concerns the target Serine/threonine-protein kinase AKT (Homo sapiens, UniProt P31751+Q9Y243+P31749). Nature of the experiment: Inhibition of AKT. It is filed as protein assay.
Experiment [5] has as its target Mitogen-activated protein kinase 1 (Homo sapiens, UniProt P28482). Nature of the experiment: Inhibition of ERK.
Experiment [6] addresses Protein kinase C delta type (Homo sapiens, UniProt Q05655). Briefly: Inhibition of PKCd.
For experiment [7], the target named is Tyrosine-protein kinase Fyn (Homo sapiens, UniProt P06241). Briefly: Inhibition of FYN.
The target of experiment [8] is Ribosomal protein S6 kinase alpha-3 (Homo sapiens, UniProt P51812).
The target of experiment [9] is Glycogen synthase kinase-3 (Homo sapiens, UniProt P49840+P49841). Nature of the experiment: Inhibition of GSKp1. It is filed as protein assay.
Experiment [10] concerns the target Protein kinase C alpha type (Homo sapiens, UniProt P17252). Nature of the experiment: Inhibition of PKCa.
In experiment [11] the test system is SJSA-1. Briefly: Antiproliferative activity against human SJSA1 cells. The format is functional, cell-based.
Experiment [12] concerns the target T1, Ephrin type-B receptor 3 (Homo sapiens, UniProt P54753).
T1 sequence (P54753 whole entry): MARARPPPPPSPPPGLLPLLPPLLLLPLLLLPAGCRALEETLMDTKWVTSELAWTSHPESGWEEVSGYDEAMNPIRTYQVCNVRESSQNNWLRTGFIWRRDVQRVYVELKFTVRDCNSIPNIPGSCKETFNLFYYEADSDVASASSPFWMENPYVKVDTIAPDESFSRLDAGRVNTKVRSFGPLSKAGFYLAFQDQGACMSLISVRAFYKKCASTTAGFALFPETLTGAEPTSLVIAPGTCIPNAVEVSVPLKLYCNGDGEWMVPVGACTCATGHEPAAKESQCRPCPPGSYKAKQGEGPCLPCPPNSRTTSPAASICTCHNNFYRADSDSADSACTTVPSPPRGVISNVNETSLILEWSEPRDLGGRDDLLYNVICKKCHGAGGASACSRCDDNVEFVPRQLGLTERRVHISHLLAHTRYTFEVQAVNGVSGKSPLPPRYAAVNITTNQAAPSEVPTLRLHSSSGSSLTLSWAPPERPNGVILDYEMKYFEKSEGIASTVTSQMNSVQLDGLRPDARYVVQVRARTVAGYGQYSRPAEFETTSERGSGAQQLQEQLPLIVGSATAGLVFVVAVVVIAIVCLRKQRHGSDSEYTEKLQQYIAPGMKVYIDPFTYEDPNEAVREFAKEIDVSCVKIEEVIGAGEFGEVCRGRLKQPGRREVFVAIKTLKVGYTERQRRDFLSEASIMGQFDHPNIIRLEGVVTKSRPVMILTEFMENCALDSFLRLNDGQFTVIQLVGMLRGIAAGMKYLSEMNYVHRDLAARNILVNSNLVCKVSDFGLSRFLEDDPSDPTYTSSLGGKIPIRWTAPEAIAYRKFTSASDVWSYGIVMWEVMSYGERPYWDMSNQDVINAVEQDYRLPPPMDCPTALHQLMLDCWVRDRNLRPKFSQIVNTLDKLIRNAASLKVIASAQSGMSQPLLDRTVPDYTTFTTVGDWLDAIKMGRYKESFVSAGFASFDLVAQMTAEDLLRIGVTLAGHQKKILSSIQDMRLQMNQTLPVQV
Nature of the experiment: Inhibition of EPHB3.

Each structure is given as a SMILES string. A value given as a limit tells only on which side of the number the result lay.

Chain of Tyrosine-protein kinase Fyn (P06241 whole entry): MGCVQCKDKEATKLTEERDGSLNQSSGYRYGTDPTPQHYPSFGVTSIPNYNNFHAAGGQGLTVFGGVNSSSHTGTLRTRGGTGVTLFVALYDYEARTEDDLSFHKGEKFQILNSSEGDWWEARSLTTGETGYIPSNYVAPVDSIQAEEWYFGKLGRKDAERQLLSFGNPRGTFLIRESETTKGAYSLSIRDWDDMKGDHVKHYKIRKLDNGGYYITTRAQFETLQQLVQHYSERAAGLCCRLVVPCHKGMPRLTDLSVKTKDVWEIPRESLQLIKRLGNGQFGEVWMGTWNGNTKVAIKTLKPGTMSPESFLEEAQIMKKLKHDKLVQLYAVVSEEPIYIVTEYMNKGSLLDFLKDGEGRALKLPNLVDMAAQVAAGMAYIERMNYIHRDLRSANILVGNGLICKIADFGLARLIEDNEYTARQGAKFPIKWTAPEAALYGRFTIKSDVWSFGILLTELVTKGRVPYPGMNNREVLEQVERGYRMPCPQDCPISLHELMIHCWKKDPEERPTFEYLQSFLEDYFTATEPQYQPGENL
Chain of Protein kinase C delta type (Q05655 whole entry): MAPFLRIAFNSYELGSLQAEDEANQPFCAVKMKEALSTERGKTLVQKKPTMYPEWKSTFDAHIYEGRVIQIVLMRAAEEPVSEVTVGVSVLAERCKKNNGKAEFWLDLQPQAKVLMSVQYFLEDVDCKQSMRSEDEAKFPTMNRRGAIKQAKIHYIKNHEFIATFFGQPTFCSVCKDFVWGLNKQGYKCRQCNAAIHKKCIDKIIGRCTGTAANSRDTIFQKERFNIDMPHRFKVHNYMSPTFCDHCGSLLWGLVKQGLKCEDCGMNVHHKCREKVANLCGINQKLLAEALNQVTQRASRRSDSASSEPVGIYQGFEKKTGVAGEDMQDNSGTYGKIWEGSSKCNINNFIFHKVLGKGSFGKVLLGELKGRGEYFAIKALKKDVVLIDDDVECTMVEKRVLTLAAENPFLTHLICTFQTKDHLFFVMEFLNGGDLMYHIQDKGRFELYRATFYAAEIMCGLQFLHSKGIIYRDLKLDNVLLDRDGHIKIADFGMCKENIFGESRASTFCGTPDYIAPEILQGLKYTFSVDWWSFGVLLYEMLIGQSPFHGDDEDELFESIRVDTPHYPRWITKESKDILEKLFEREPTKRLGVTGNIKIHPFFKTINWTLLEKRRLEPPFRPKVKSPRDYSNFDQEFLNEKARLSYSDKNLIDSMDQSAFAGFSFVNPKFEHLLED
Chain of Mitogen-activated protein kinase 1 (P28482 whole entry): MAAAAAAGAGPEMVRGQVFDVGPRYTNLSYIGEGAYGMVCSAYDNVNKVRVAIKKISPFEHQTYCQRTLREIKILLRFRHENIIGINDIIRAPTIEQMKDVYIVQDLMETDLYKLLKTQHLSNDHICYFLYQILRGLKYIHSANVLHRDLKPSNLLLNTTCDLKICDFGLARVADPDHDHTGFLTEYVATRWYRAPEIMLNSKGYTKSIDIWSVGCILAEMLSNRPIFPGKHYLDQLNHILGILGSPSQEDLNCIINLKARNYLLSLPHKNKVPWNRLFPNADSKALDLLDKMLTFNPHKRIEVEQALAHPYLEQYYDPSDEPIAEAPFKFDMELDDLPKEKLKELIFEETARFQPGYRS
Chain of Ribosomal protein S6 kinase alpha-3 (P51812 whole entry): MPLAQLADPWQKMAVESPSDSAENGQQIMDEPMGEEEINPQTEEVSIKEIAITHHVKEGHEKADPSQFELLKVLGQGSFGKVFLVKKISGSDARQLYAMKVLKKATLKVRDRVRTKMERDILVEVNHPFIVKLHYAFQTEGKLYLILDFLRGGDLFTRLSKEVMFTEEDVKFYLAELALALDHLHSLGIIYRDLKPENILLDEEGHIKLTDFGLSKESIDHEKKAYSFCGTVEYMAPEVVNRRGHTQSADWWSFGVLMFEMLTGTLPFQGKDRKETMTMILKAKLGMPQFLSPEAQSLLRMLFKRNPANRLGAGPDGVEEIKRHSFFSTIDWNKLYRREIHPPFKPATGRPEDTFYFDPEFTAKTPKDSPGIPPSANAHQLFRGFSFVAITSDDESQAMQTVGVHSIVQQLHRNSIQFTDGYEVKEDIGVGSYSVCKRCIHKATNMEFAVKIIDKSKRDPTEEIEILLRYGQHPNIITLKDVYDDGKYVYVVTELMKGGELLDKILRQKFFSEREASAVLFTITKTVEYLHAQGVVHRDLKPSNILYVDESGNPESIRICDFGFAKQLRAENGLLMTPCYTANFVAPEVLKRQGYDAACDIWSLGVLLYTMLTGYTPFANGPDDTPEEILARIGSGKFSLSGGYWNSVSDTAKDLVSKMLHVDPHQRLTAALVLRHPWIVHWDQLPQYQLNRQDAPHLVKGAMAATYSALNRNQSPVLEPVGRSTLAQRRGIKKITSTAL
Chain of Cyclin-dependent kinase 4 (P11802 whole entry): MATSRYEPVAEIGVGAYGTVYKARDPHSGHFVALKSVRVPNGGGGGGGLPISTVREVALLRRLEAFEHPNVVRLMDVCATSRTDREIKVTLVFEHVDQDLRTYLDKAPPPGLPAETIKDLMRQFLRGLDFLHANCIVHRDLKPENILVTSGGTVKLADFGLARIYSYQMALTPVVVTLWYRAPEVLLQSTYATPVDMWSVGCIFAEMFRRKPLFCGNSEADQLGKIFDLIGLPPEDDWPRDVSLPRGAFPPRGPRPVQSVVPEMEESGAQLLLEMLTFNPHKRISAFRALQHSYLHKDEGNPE

As to `O=C1N=C(NCCc2cccs2)S/C1=C\c1ccc2ncccc2c1`, the Ki in experiment [1] turned out to be 45 nM. In other words, the double-digit nanomolar range.
Same read-out and setting: then `O=C1N=C(NCc2ccccc2)S/C1=C\c1ccc2ncccc2c1`, with 150 nM; and `O=C1N=C(NCCc2ccccc2F)S/C1=C\c1ccc2ncccc2c1`, with 120 nM.
Take `O=C1N=C(N[C@@H]2C[C@H]2c2ccccc2)S/C1=C\c1ccc2ncccc2c1`: the Ki in experiment [2] is more than 2000 nM; in experiment [3], more than 2000 nM; in [4], more than 2000 nM; in experiment [5] it was 220 nM; in [1], 23 nM; in [6] it was 480 nM. The Ki in experiment [7], in experiment [8], in [9], in [10] and in experiment [12] was more than 2000 nM in each case. In experiment [11], this compound displayed an IC50 of 1850 nM.
For `O=C1N=C(NCc2ccccc2Br)S/C1=C\c1ccc2ncccc2c1`, the Ki in experiment [1] turned out to be 38 nM.
For the compound `O=C1N=C(N[C@H](CO)Cc2ccccc2)S/C1=C\c1ccc2ncccc2c1`, affinity in experiment [1] was put at a Ki of 2000 nM.
`O=C1N=C(NCc2ccccc2Cl)S/C1=C\c1ccc2ncccc2c1` yielded a Ki in experiment [1] of 52 nM.
Same read-out and setting: then `O=C1N=C(NCCCc2ccccc2)S/C1=C\c1ccc2ncccc2c1`, with 240 nM.
In experiment [1], `O=C1N=C(NCCc2ccccc2)S/C1=C\c1ccc2ncccc2c1` registered a Ki of 60 nM.
The same measure, in the same setting: then `COC[C@H](NC1=NC(=O)/C(=C/c2ccc3ncccc3c2)S1)c1ccccc1`, with more than 2000 nM.
The same measure, in the same setting: then `CCCCNC1=NC(=O)/C(=C/c2ccc3ncccc3c2)S1`, with 310 nM; and `O=C1N=C(NCc2ccccn2)S/C1=C\c1ccc2ncccc2c1`, with 310 nM.
The compound `O=C1N=C(NCc2c(Cl)cccc2Cl)S/C1=C\c1ccc2ncccc2c1` yielded a Ki in experiment [1] of 1040 nM.
With `O=C1N=C(NCCc2ccc(F)cc2)S/C1=C\c1ccc2ncccc2c1`, in [1], the Ki worked out at 62 nM.
Still for that read-out and setting: then `O=C1N=C(NCCc2cccc(F)c2)S/C1=C\c1ccc2ncccc2c1`, with 60 nM.
`O=C1N=C(NCc2cccs2)S/C1=C\c1ccc2ncccc2c1`: the Ki in experiment [4] is more than 2000 nM; in experiment [5], 2000 nM; in [6], 320 nM; in experiment [7], more than 2000 nM; in [9], 500 nM; in experiment [10], more than 2000 nM. The compound also came in with a Ki in experiment [12] of more than 2000 nM. The compound also gave an IC50 in experiment [11] of 4550 nM.
In experiment [1], `O=C1N=C(NCCc2cccc(Cl)c2)S/C1=C\c1ccc2ncccc2c1` registered a Ki of 130 nM.
For `O=C1N=C(N[C@@H](CO)c2ccccc2)S/C1=C\c1ccc2ncccc2c1`, in experiment [1], the Ki was 350 nM.
Compound `Cc1ccsc1CNC1=NC(=O)/C(=C/c2ccc3ncccc3c2)S1` had a Ki in experiment [1] of 89 nM.
Turning to `COc1ccc(CCNC2=NC(=O)/C(=C/c3ccc4ncccc4c3)S2)cc1`, the Ki in [1] was 390 nM.
Consider `O=C1N=C(N[C@@H](CO)Cc2ccccc2)S/C1=C\c1ccc2ncccc2c1`, for which, in experiment [1], the affinity, expressed as Ki, was 230 nM. In experiment [11], this compound returned an IC50 of 3240 nM.
In turn, `O=C1N=C(NCCc2ccccc2Cl)S/C1=C\c1ccc2ncccc2c1` showed a Ki in experiment [1] of 46 nM.
On the same count and under the same terms, for `CN(Cc1cccs1)C1=NC(=O)/C(=C/c2ccc3ncccc3c2)S1` the value was more than 2000 nM; for `O=C1N=C(NCCc2ccc(Cl)cc2)S/C1=C\c1ccc2ncccc2c1`, 410 nM; for `O=C1N=C(NCC(CO)c2ccccc2)S/C1=C\c1ccc2ncccc2c1` (stereo not given), 390 nM.
On the same count and under the same terms, then `O=C1N=C(N[C@H](CO)c2ccccc2)S/C1=C\c1ccc2ncccc2c1`, with 580 nM; and `CNC1=NC(=O)/C(=C/c2ccc3ncccc3c2)S1`, with 270 nM.
Consider `O=C1N=C(NC2CC2)S/C1=C\c1ccc2ncccc2c1`, for which the affinity in [1], expressed as Ki, was 270 nM.
`NC1=NC(=O)/C(=C/c2ccc3ncccc3c2)S1`: the inhibition constant (Ki) in experiment [2] was more than 2000 nM; in experiment [3], 2000 nM; in experiment [4], more than 2000 nM; in [5] it was more than 2000 nM; in experiment [1], 80 nM; in [6] it was 1700 nM. Besides, the Ki in experiment [7], in [8], in [9], in experiment [10] and in experiment [12] was more than 2000 nM each time.
As to `CCOc1ccccc1CCNC1=NC(=O)/C(=C/c2ccc3ncccc3c2)S1`, the Ki in experiment [1] was determined as 87 nM. That is a double-digit nanomolar value.
On the same count and under the same terms, for `COc1ccccc1CNC1=NC(=O)/C(=C/c2ccc3ncccc3c2)S1` the value was 86 nM; for `O=C1N=C(Nc2ccccc2)S/C1=C\c1ccc2ncccc2c1`, more than 2000 nM; for `CONC1=NC(=O)/C(=C/c2ccc3ncccc3c2)S1`, more than 2000 nM.
The compound `O=C1N=C(NCCc2ccc(Br)cc2)S/C1=C\c1ccc2ncccc2c1` displayed a Ki in experiment [1] of 640 nM.
Same read-out and setting: then `COc1ccccc1CCNC1=NC(=O)/C(=C/c2ccc3ncccc3c2)S1`, with 63 nM.
In experiment [1], `O=C1N=C(NCCc2ccccn2)S/C1=C\c1ccc2ncccc2c1` had a Ki of 280 nM.

The Ki is the dissociation constant of the complex between target and ligand, obtained from inhibition or displacement. Read a low Ki as higher affinity. As usually defined, the IC50 is the point on the concentration scale where inhibition reaches its midpoint. A low value points to greater potency in that assay.

These data come from ChEMBL document CHEMBL1147195, “Synthesis and activity of quinolinyl-methylene-thiazolinones as potent and selective cyclin-dependent kinase 1 inhibitors” (Bioorg Med Chem Lett, 2007).
